Data reported in US20020004058A1, “Immunomodulating and antiinflammatory agent” (priority 1993, published 2002).

Assays:
[1] = system: TNP-specific DTH reaction; experiment: TNP-specific DTH reaction (paw swelling) in mice sensitized with TNP-SRBC; type: in vivo, male BALB/c mice; settings: for Swelling in Paws After 24 Hrs.: difference right/left paw 24 hours after TNB induction on day 14; for Swelling in Paws After 24 Hrs. / Swelling in Paws After 48 Hrs.: drugs by hypodermic injection four days from sensitization; for Swelling in Paws After 48 Hrs.: difference right/left paw 48 hours after TNB induction on day 14; for action to the delayed type hypersensitivity (DTH), in words: hypodermic injection four days from sensitization
Method: (§1) Trinitrobenzenesulfonic acid (TNBS) was dissolved in a physiological saline solution buffered with phosphoric acid to prepare a solution (40 mg/7.0 ml; pH 7.2) and then 1 ml of sheep red cell pellets was dropped thereinto with stirring. The mixture was allowed to stand at room temperature with stirring for several times under a light-shielding state and washed with a physiological saline solution three times. Then it was centrifuged at 3,000 rpm for five minutes and made into a solution of 5×10^9 cells/ml using a physiological saline solution.
The mice were sensitized with TNP-SRBC as described in paragraph (2) above. On the 14th day, 0.025 ml of TNB (4.7 mg/ml) was injected into the right hind paw to induce a TNP-specific DTH reaction. After 24 hours and 48 hours from the induction, the thickness of both paws was measured using a dial gauge. The difference in the thickness between the right and left paws was expressed as the intensity of the DTH reaction. […] This measuring system for the DTH reaction can be subjected to further tests using the same mice as in the case of the antibody production system of paragraph (2) above.
(§2) The above-mentioned test system was used for checking the action of: (a) the histamine-added mouse gamma-globulin (150 mg/kg/day) (the product of the present invention), (b) cyclosporin A (100 mg/kg/day), (c) cyclophosphamide (100 mg/kg/day), (d) prednisolone ([…]) and (e) levamizole (5 mg/kg/day) towards the anti-TNP antibody production and to the TNP-specific DTH reaction. The drugs were administered by hypodermic injection four days from the sensitization with TNP-SRBC.

[2] = system: anti-TNP antibody production; experiment: Production of a TNP-specific antibody (anti-TNP IgM and IgG, ELISA) in mice sensitized with TNP-SRBC; type: in vivo, male BALB/c mice; settings: hypodermic injection four days from sensitization
Method: as §1
TNP-SRBC (10^9 cells) was intraperitoneally administered to male BALB/c mice of six to eight weeks age and the anti-TNP antibody in serum was measured by an enzymatic immunoassay (ELISA) using a dinitrophenyl-bovine serum albumin (DNP-BSA).
as §2

[3] = system: eosinophils exudated to peritoneum; experiment: Hypereosinophilic model induced by platelet activating factor (PAF); type: in vivo, female BALB/c mice
Method: A PAF (5 micrograms/200 microliters) was intraperitoneally injected into female BALB/c mice of six to eight weeks age to induce the reaction. After 24 hours from the induction, the peritoneal exudate cells were recovered and the number of the eosinophils were counted.

[4] = system: eosinophils exudated to peritoneum; experiment: Hypereosinophilic model induced by ragweed pollen antigen; type: in vivo, female BALB/c mice
Method: A ragweed pollen extract (which was diluted to an extent of 1,000 times using a physiological saline solution) was hypodermically injected into female BALB/c mice of six to eight weeks age for sensitization at the dose of 0.1 ml on the initiation day and on the first day and 0.2 ml on the sixth, eighth and fourteenth days. On the twentieth day, 0.2 ml of a 1,000 times diluted ragweed antigen was intraperitoneally injected into the mice to induce the reaction. On the 24th hour after the induction, the peritoneal exudate cells were recovered and subjected to a Giemsa staining and the total cell numbers, number of eosinophils, number of neutrophils and number of mononuclear cells were counted. As a result, the number of the eosinophils peaked 24 hours after the induction. […] The above-mentioned hypereosinophilic models were used for checking the action towards the hypereosinophilicity by a hypodermic injection of the product of the present invention. Thus, histamine-added mouse gamma-globulin, at a dose of 3 mg/mouse/day twice a week for three weeks was administered until the induced day. Further tests were conducted by administering the corresponding amount of each of histamine (dihydrochloride) and mouse gamma-globulin which are the constituting components of the histamine-added mouse gamma-globulin.

O=P1(N(CCCl)CCCl)NCCCO1 (stereo not shown) [Cyclophosphamide, cyclophosphamide]
Swelling in Paws After 24 Hrs. [1]: 13.3 ± 2.1 ×10^−2 mm
Swelling in Paws After 48 Hrs. [1]: 15.8 ± 2.4 ×10^−2 mm
action to the delayed type hypersensitivity (DTH), in words [1]: clear suppressive actions
action upon anti-TNP IgG antibody production (FIG. 2), in words [2]: significantly suppressed
action upon anti-TNP IgM antibody production (FIG. 1), in words [2]: significantly suppressed

c1ccc([C@H]2CN3CCSC3=N2)cc1 [Lavamizole, levamizole]
Swelling in Paws After 24 Hrs. [1]: 40.0 ± 6.5 ×10^−2 mm
Swelling in Paws After 48 Hrs. [1]: 20.0 ± 5.0 ×10^−2 mm
action to the delayed type hypersensitivity (DTH), in words [1]: no significant effect
action upon anti-TNP IgG antibody production (FIG. 2), in words [2]: did not significantly affect
action upon anti-TNP IgM antibody production (FIG. 1), in words [2]: did not significantly affect

C[C@]12C=CC(=O)C=C1CC[C@@H]1[C@@H]2[C@@H](O)C[C@@]2(C)[C@H]1CC[C@]2(O)C(=O)CO [Prednisolone, prednisolone]
Swelling in Paws After 24 Hrs. [1]: 30.0 ± 5.6 ×10^−2 mm
Swelling in Paws After 48 Hrs. [1]: 8.3 ± 3.3 ×10^−2 mm
action to the delayed type hypersensitivity (DTH), in words [1]: weak suppressive action
action upon anti-TNP IgG antibody production (FIG. 2), in words [2]: did not significantly affect
action upon anti-TNP IgM antibody production (FIG. 1), in words [2]: did not significantly affect

Cl.Cl.NCCc1c[nH]cn1 [Histamine, histamine (dihydrochloride)]
Number of Exudated Eosinophils to Peritoneum ([3]; PAF 5 micrograms i.p., 24 hours after induction): 2.2 ± 0.8 ×10^5 cells
suppressive action upon hypereosinophilicity induced by PAF, in words ([3]; same manner of administration as ragweed model): not observed
Number of Eosinophils Exudated to Peritoneum ([4]; ragweed antigen induced, 24 h after induction, product 3 mg/mouse/day s.c. twice a week for three weeks, components in corresponding amount, cyclosporin A 100 mg/kg/day three days): 3.4 ± 0.6 ×10^5 cells
suppression of eosinophil exudation into peritoneum, ragweed pollen antigen model, in words ([4]; twice a week for three weeks until the induced day): not observed
